Data as given in EP2127664A1, “Change of the load state of MHC molecules by dipeptides” (priority 2008, dated 2009).
Entries after “also recorded” stand apart in the source; their conditions may differ. Peptide text beside a SMILES is read from it.

Legend:
[1] = target: T1, soluble HLA-DR1 (DRA*0101, DRB1*0101) (Homo sapiens, UniProt P01903+P01911, A100R/D57E/F55L/F60I/F76Y/I96L/L162R/M171V/P40L/Q125E/R42F/V115G/Y59C); assay: Peptide loading of soluble HLA-DR1 with HA306-318 (ELISA); assay type: biochemical; settings: for complex formation between HA306-318 and soluble HLA-DR1 (catalytic activity): titrated amounts of dipeptide, 100nM HLA-DR1, phosphate-buffered saline pH 7.4, 37 °C, 1 h; for catalytic rate enhancement: mean activity, soluble HLA-DR1 (DRB1*0101)
T1 construct: Recombinant soluble HLA-DR1 (DRA*0101, DRB1*0101) (Sloan, V. S (1995) Nature 375, 802-806) was produced in S2 insect cells; made in house; host or cells: S2 insect cells
Description: Antibodies and soluble HLA-DR1. The HLA-DR-specific antibody L243 (ATCC) was purified.

[2] = test system: HLA-DR1 restricted mouse T cell hybridoma EvHA/X5; assay: In vitro T cell assay with HA306-318 and peptide-MLE; assay type: cell-based
Description: (§1) Cells. Stable transfection of L929 fibroblasts (ATCC) were done to generate L101 (DRB1*0101 b86 G) or L101 (β86V) respectively (Höpner et al., (2006), supra). Epstein-Barr virus-transformed B cell 721.221(DRB1*0101) was obtained from ATCC. EvHA/X5 (DRB1*0101-restricted, HA306-318-specific) were derived from HLA-DR1tg mice (Rosloniec, E. F. (1997) J. Exp. Med. 185, 1113-1122) and were generated after fusion of the CD4+ EvHA T cell line with the BW cell (Höpner et al., (2006), supra). CD4+ T cell line PD2 , HLA-DR1 restricted and HA 306-318 specific (Falk K, et al., (2000) Eur. J. Immunol. 30, 3012-3020), ABL 908-922-specific T cell hybridoma SaABL/G2 was generated after fusing a CD4+ T cell line generated in HLA-DR1 […] mice with the BW cell.
(§2) T cell Assays. For pulse wash experiments 5x 10^4 HLA-DR-expressing cells/well were loaded for 4 h with antigenic peptides in the presence and absence of dipeptides as described above. Cells were then washed, and 5x10^4 T cells were added to the culture, which was then incubated for 24 h in Dulbecco's modified Eagle's medium, 5% fetal calf serum in 96-well U-bottom plates. However for permanent assay, HLA-DR expressing cells, T cells and dipeptide stayed together in the reaction for 48 hrs. T cell response was determined in a secondary assay with CTL-L cells (ATCC) as described previously (Falk, K., (2002) J. Biol. Chem. 277, 2709-2715). In experiments with PD-2 cell line, HTR's (as APCs) were pre-irradiated for 520 sec and then used for experiments.

[3] = test system: human T cell line PD2; assay: as above; assay type: cell-based
Description: as §1, §2

[4] = target: T2, CLIP/HLA-DR1 complex (Homo sapiens, UniProt P01903+P01911, A100R/D57E/F55L/F60I/F76Y/I96L/L162R/M171V/P40L/Q125E/R42F/V115G/Y59C); assay: Ligand exchange / complex dissociation of CLIP/HLA-DR1 (ELISA); assay type: biochemical; settings: 10 mM dipeptide; in the presence of free HA306-318
T2 construct: soluble class II MHC molecules were preloaded with the CLIP peptide; made in house; host or cells: S2 insect cells
Description: Ligand-exchange of soluble HLA-DR molecules- In vitro ligand exchange experiments were carried out by loading 1,5 µM of HLA-DR1 with biotinylated IC106-120, for 20 hrs (Höpner et al., (2006), supra) in presence of 5% ethanol. HLA-DR1:IC complex was diluted to 1:15 and incubated with 200µg/ml HA peptide in presence and absence of 10mM dipeptide.

[5] = target: T3, fibroblast cells transfected with mutated HLA-DR1 (β86G→V) (Homo sapiens, UniProt P01903+P01911, A100R/D57E/F55L/F60I/F76Y/I96L/L162R/M171V/P40L/Q125E/R42F/Y59C); assay: Peptide loading of cell surface MHC molecules with ABL908-922 (FACS); assay type: cell-based; settings: fibroblasts expressing HLA-DR1 (β86G→V)
T3 construct: transfected with full length versions of wt HLA-DR1 (β86G) and mutated HLA-DR1 (β86G→V); expressed in transfected cells
Description: as §1
Peptide Loading of Cell Surface MHC Molecules. For loading experiments biotinylated antigenic peptides were incubated with 10 x 10^4 HLA-DR expressing cells/well in presence and absence of dipeptides at 37 °C in Dulbecco's modified Eagle's medium, 5% fetal calf serum in a 96 well V bottom plate for 4 hrs. FACS analysis was done as described previously (Höpner et al., (2006), supra).

[6] = target: T4, HLA-DR1 (β86G→V) (Homo sapiens, UniProt P01903+P01911, A100R/D57E/F55L/F60I/F76Y/I96L/L162R/M171V/P40L/Q125E/R42F/Y59C); assay: Loading of soluble mutated HLA-DR1 with ABL908-922 (ELISA); assay type: biochemical; settings: titrated amounts of dipeptide
T4 construct: Recombinant soluble HLA-DR1 molecules were mutated at position 86; made in house; host or cells: S2 insect cells (printed for the recombinant soluble HLA-DR1; not repeated for the mutants)
Description: Peptide loading/ of Soluble HLA-DR Molecules- For in vitro loading experiments 100nM HLA-DR1 was incubated with 40 µg/ml (phosphate-buffered saline, pH 7.4, 37 °C, 1 h).

[7] = test system: CD4+ T cell hybridoma specific for the ABL epitope (SaABL/G5); assay: T cell assay, ABL908-922-loaded fibroblasts expressing HLA-DR1 (β86G→V); assay type: cell-based, mice; settings: fibroblasts with mutated HLA-DR1 (β86G→V) loaded in the presence of dipeptides
Description: as §1
as §2, with “In experiments with PD-2 cell line, HTR's (as APCs) were pre-irradiated for 520 sec and then used for experiments.” left out

[8] = in the presence of Ac-FR-NH2 (5 mM per Fig. 5 legend)
[9] = in the absence of the dipeptide catalyst

Compound: CC(=O)N[C@@H](CCC(=O)O)C(=O)N[C@@H](CCCNC(=N)N)C(N)=O [Ac-ER-NH2] (Ac-Glu-Arg-NH2)
- complex formation between HA306-318 and soluble HLA-DR1 (catalytic activity) [1]: No enhancement; also recorded: abrogated the effect

Compound: CC(=O)N[C@@H](C)C(=O)N[C@@H](CCCNC(=N)N)C(N)=O [Ac-AR-NH2] (Ac-Ala-Arg-NH2)
- complex formation between HA306-318 and soluble HLA-DR1 (catalytic activity) [1]: completely inactive; also recorded: abrogated the effect

Compound: CC(=O)N[C@@H](Cc1ccc(O)cc1)C(=O)N[C@@H](CCCNC(=N)N)C(=O)O [Ac-YR]
- complex formation between HA306-318 and soluble HLA-DR1 (catalytic activity) [1]: partial effect

Compound: CC(=O)N[C@@H](Cc1c[nH]c2ccccc12)C(=O)N[C@@H](CCCNC(=N)N)C(N)=O [Ac-WR-NH2] (Ac-Trp-Arg-NH2)
- catalytic rate enhancement [1]: 3.54 mM⁻¹

Compound: CC(=O)N[C@@H](Cc1ccccc1)C(=O)N[C@@H](CCCNC(=N)N)C(N)=O [Ac-FR-NH2] (Ac-Phe-Arg-NH2)
- half-maximal response (concentration of HA306-318) [2, 8]: 0.65 ng/mL
- half-maximal response (concentration of HA306-318) [3, 8]: 0.23 ng/mL
- on-rate is amplified by a factor of ([1]; in the presence of 1 mM): 7.08
- catalytic rate enhancement [1]: 6.08 mM⁻¹

Compound: C[C@H](N)C(=O)N[C@@H](CCCNC(=N)N)C(=O)O [AR] (H-Ala-Arg-OH)
- complex formation between HA306-318 and soluble HLA-DR1 (catalytic activity) [1]: No effect

Compound: N=C(N)NCCC[C@H](NC(=O)[C@@H](N)Cc1ccc(O)cc1)C(N)=O [YR-NH2]
- complex formation between HA306-318 and soluble HLA-DR1 (catalytic activity) [1]: partial effect

Compound: HA306-318: high-affinity peptide ligand / antigen HA306-318 (PKYVKQNTLKLAT) [reference compound]
- half-maximal response (concentration of HA306-318) [2, 9]: 31 ng/mL
- half-maximal response (concentration of HA306-318) [3, 9]: 14 ng/mL

Compound: CC(=O)N[C@@H](Cc1ccc(O)cc1)C(=O)N[C@@H](CCCNC(=N)N)C(N)=O [Ac-YR-NH2]
- complex dissociation of CLIP/HLA-DR1 [4]: weaker dissociation
- increase in the catalytic activity compared to the unmodified YR peptide ([1]; complex formation between HA306-318 and HLA-DR1): more than 10 fold
- catalytic rate enhancement [1]: 3.39 mM⁻¹

Compound: N=C(N)NCCC[C@H](NC(=O)[C@@H](N)Cc1ccc(O)cc1)C(=O)O [YR]
- complex formation between HA306-318 and soluble HLA-DR1 (catalytic activity) [1]: accelerated the MHC-loading with the HA306-318 peptide in a dose-dependent way

Compound: CC(=O)N[C@@H](CC(C)C)C(=O)N[C@@H](CCCNC(=N)N)C(N)=O [Ac-LR-NH2]
- complex dissociation of CLIP/HLA-DR1 [4]: weaker dissociation
- loading of cells with ABL908-922 determined by FACS [5]: most effective
- enhancement of ABL908-922 loading [6]: best enhancement
- effect on the HA306-318-specific T cell response ([2]; compared with Ac-FR-NH2): weaker effects
- effect on the HA306-318-specific T cell response ([3]; compared with Ac-FR-NH2): weaker effects
- ABL908-922-specific T cell stimulation [7]: most efficient ABL908-922-specific stimulation
